The numbers were not newly measured in patent US20050244498A1 (priority 2001, published 2005), which cites them from elsewhere.

The structures appear in SMILES notation.

The conditions of the data set: in vivo.

Turning to `COc1ccc(C(CN(C)C)C2(O)CCCCC2)cc1` (racemic) [venlafaxine, (R/S)-1-[2-(dimethylamino)-1-(4methoxyphenyl)ethyl]cyclohexanol], the elimination half-life entry was “about 4 hours”.
For `CN(C)CC(c1ccc(O)cc1)C1(O)CCCCC1` (centres unmarked) [active metabolite, O-desmethylvenlafaxine], the elimination half-life result is “about 8 hours”.
